Reference: paper PMC8217340 (Phytotherapy research : PTR, 2021)
Like-named read-outs stand apart in the source and are kept apart here.

Tests used:
human OATP1B1 [1] = target: T1, human OATP1B1 (Homo sapiens, UniProt Q9Y6L6); type: cell-based; details: 5 μM flavonolignan, 5 minutes; uptake minus wild-type CHO cells
T1 sequence (Q9Y6L6 1-691): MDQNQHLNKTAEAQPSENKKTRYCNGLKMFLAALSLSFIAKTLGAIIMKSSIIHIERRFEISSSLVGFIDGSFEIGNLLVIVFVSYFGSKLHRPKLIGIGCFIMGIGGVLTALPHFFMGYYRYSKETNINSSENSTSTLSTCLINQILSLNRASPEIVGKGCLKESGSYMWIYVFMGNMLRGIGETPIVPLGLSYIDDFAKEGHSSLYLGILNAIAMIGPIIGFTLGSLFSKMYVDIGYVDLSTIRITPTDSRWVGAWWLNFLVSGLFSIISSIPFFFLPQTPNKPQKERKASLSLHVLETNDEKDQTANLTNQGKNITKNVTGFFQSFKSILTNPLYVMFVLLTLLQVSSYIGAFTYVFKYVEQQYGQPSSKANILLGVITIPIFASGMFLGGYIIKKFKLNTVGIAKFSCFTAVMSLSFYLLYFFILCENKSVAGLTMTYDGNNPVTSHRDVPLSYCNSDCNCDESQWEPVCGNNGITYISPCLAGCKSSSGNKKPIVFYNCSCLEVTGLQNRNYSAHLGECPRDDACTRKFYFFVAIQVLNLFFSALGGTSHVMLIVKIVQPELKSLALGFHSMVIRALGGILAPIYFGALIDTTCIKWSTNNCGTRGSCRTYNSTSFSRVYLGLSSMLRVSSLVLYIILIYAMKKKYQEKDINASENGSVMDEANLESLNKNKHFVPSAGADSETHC

human OATP1B3 [2] = target: T2, human OATP1B3 (Homo sapiens, UniProt Q9NPD5); type: cell-based; details: 5 μM flavonolignan, 5 minutes; uptake minus wild-type CHO cells
T2 sequence (Q9NPD5 1-702): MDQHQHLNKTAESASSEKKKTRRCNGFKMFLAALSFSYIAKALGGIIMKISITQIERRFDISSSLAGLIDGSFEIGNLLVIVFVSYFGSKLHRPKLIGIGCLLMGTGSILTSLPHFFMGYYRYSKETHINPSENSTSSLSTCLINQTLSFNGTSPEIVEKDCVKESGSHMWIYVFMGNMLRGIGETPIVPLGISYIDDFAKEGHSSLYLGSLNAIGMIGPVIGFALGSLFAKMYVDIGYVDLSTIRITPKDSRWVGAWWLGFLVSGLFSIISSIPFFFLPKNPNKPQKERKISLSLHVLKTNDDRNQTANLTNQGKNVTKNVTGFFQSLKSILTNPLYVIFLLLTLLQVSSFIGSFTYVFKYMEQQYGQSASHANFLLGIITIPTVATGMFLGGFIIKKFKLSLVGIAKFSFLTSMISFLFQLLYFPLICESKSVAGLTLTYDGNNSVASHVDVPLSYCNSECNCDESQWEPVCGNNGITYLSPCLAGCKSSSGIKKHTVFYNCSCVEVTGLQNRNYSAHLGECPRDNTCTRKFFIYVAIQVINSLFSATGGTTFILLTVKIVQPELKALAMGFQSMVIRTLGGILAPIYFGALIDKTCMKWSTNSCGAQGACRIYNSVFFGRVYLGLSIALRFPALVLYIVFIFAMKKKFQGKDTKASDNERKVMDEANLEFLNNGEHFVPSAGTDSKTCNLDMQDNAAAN

human OATP2B1 = target: T3, human OATP2B1 (Homo sapiens, UniProt O94956); type: cell-based; details: 5 μM flavonolignan, 5 minutes; for substrate for OATP2B1: uptake minus wild-type CHO cells
T3 sequence (O94956 1-709): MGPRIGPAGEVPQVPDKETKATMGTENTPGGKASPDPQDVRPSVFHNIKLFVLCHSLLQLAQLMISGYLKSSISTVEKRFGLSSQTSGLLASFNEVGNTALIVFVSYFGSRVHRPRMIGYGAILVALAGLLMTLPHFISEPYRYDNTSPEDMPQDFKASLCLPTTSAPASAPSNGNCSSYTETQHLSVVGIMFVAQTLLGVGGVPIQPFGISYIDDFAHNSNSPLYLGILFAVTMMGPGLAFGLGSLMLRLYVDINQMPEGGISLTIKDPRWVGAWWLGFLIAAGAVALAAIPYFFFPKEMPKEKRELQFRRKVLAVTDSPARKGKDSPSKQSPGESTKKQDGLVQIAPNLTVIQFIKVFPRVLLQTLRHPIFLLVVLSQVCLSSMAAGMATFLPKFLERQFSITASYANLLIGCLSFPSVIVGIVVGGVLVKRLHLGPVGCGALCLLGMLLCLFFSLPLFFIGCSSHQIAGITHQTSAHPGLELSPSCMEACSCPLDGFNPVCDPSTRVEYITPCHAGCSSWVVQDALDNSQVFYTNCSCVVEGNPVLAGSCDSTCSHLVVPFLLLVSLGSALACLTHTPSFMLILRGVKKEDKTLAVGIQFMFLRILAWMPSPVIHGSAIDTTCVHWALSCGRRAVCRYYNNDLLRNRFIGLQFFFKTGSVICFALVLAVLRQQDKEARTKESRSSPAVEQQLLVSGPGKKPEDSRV

[3] = type: in vivo, Sprague Dawley rats
[4] = type: in vivo, Sprague Dawley rats; details: 27 hours after pitavastatin gavage
[5] = read-out: average Cmax; NAFLD and HCV patients; ref Fried, 2012; Wah Kheong et al., 2017; cited from earlier work
[6] = for Cmax: NASH animals, silymarin 500 mg/kg oral gavage, plasma, geometric mean (90% CI)
UGT2B7 = details: ref Uchaipichat, 2018; cited from earlier work
human OATP1B1 [7] = target: T1, human OATP1B1; type: cell-based
human OATP1B3 [8] = target: T2, human OATP1B3; type: cell-based
[9] = human, in vivo; cited from earlier work
[10] = in vivo; cited from earlier work

In the case of `COc1cc([C@H]2Oc3ccc([C@H]4Oc5cc(O)cc(O)c5C(=O)[C@@H]4O)cc3O[C@@H]2CO)ccc1O` [IA, isosilybin A], the “substrate for OATP1B1” value (human OATP1B1 [1]) is reported as “substrates”, the “substrate for OATP1B3” value (human OATP1B3 [2]) is reported as “substrates” and the “substrate for OATP2B1” value (human OATP2B1) is reported as “substrates”.
With `COc1cc([C@@H]2Oc3ccc([C@H]4Oc5cc(O)cc(O)c5C(=O)[C@@H]4O)cc3O[C@H]2CO)ccc1O` [IB, isosilybin B] the “substrate for OATP1B1” value (human OATP1B1 [1]) was “substrates”, the “substrate for OATP1B3” value (human OATP1B3 [2]) was “substrates” and the “substrate for OATP2B1” value (human OATP2B1) was “substrates”.
For `O=C(O)C[C@H](O)C[C@H](O)/C=C/c1c(C2CC2)nc2ccccc2c1-c1ccc(F)cc1` [Pitavastatin, Pitavastatin calcium], the “silymarin effect on pitavastatin Cmax” value ([3]; 40-minute offset between pitavastatin and silymarin administration) was “no significant silymarin effect”, the “increase of pitavastatin AUC0-27h by silymarin” value ([3]; NASH silymarin group vs NASH vehicle) was 1.8 fold and the “increase of pitavastatin AUC0-27h by NASH alone” value ([3]; NASH vehicle compared to control vehicle) was 2.9 fold. For the same molecule, the “increase of pitavastatin AUC0-27h by the combination of silymarin and NASH” value ([3]; compared to the control vehicle group) was 5.1 fold, the “increase of pitavastatin AUC0-27h by silymarin” value ([3]; control silymarin group vs control vehicle) was 1.8 fold and the “increase of pitavastatin Cmax by NASH compared to control” value ([3]; in the absence of silymarin) was 3.9 fold. The “increase of pitavastatin Cmax by NASH compared to control” value ([3]; in the presence of silymarin) was 2.8 fold, the “liver pitavastatin content, NASH vs control groups” value [4] was “not different” and the “liver to plasma ratio in the NASH group” value [4] was “decreased”.
In the case of `COc1cc([C@H]2Oc3cc([C@H]4Oc5cc(O)cc(O)c5C(=O)[C@@H]4O)ccc3O[C@@H]2CO)ccc1O` [SA, silybin A], the “substrate for OATP1B1” value (human OATP1B1 [1]) is reported as “substrates”, the “substrate for OATP1B3” value (human OATP1B3 [2]) is reported as “substrates” and the “substrate for OATP2B1” value (human OATP2B1) is reported as “substrates”. The Cmax [5] was 0.8 to 4.2 µM and the “plasma AUC of SA relative to that of SC” value ([6]; oral silymarin 500 mg/kg) was 110 times.
For `COc1cc([C@@H]2Oc3cc([C@H]4Oc5cc(O)cc(O)c5C(=O)[C@@H]4O)ccc3O[C@H]2CO)ccc1O` [SB, silybin B], the “substrate for OATP1B1” value (human OATP1B1 [1]) was “substrates”, the “substrate for OATP1B3” value (human OATP1B3 [2]) was “substrates” and the “substrate for OATP2B1” value (human OATP2B1) was “substrates”.
For `COc1cc([C@@H]2Oc3c(O)cc([C@H]4Oc5cc(O)cc(O)c5C(=O)[C@@H]4O)cc3[C@H]2CO)ccc1O` [SC, silychristin], the “substrate for OATP1B1” value (human OATP1B1 [1]) was “substrates”, the “substrate for OATP1B3” value (human OATP1B3 [2]) was “substrates” and the “transport activity of OATP2B1 compared to SA” value (human OATP2B1) was “lower transport activity”. The “substrate for OATP2B1” value (human OATP2B1) was “substrates”.
With `COc1cc([C@@H]2[C@H]3CO[C@@]4(O)C(=O)[C@@H]2C=C([C@H]2Oc5cc(O)cc(O)c5C(=O)[C@@H]2O)[C@@H]34)ccc1O` [SD, silydianin] the “substrate for OATP1B1” value (human OATP1B1 [1]) was “substrates”, the “substrate for OATP1B3” value (human OATP1B3 [2]) was “substrates” and the “substrate for OATP2B1” value (human OATP2B1) was “substrates”.
For `COc1cc(C2Oc3cc([C@H]4Oc5cc(O)cc(O)c5C(=O)[C@@H]4O)ccc3OC2CO)ccc1O` (stereo partly shown) [silybin], the “concentrations at which inhibition of UGT2B7 occurs” value (UGT2B7) is listed as 0.60 to 1.5 mM.
silybin A-4”-O-β-D-glucuronide [S4G] showed a Cmax [6] of 12.6 µM.
For silybin A-7-O-β-D-glucuronide [S7G], the Cmax [6] was 12.6 µM.
For silymarin, the “leftward shift in IC50 for OATP1B1” value (human OATP1B1 [7]) is given as 2.8 fold, the “leftward shift in IC50 for OATP1B3” value (human OATP1B3 [8]) is given as 1.7 fold and the adverse events [9] is given as “no adverse events”. The “safety of the dose” value [10] was “safe”.
